According to US20090258883A1, “1H-Indole-Pyridinecarboxamide and 1H-Indole-Piperidinecarboxamide Compounds” (LES LABORATOIRES SERVIER, priority 2005, published 2009):
Marks after values point to notes of the source that are not given here.

Assays:
[1] = system: tyrosine hydroxylase (TH) protein; experiment: Induction of tyrosine hydroxylase (TH) in LC, SN and VTA of the mouse brain; type: in vivo, Balb/C mouse; conditions: for amount of TH in LC section 1: LC section 1 (posterior-to-anterior); for amount of TH in LC section 1 / amount of TH, LC, total: i.p. 20 mg/kg; for amount of TH in LC section 1 / amount of TH in LC section 2 / amount of TH in LC section 3 / amount of TH in LC section 4 / amount of TH in LC section 5 / amount of TH in LC section 6 / amount of TH in LC section 7 / amount of TH in LC section 8 / amount of TH in LC section 9 / amount of TH in LC section 10 / amount of TH in LC section 11 / amount of TH, LC, total: three days after single injection; for amount of TH in LC section 1 / amount of TH in LC section 2 / amount of TH in LC section 3 / amount of TH in LC section 4 / amount of TH in LC section 5 / amount of TH in LC section 6 / amount of TH in LC section 7 / amount of TH in LC section 8 / amount of TH in LC section 9 / amount of TH in LC section 10 / amount of TH in LC section 11 / amount of TH, LC, total / TH induction in the SN / TH induction in the VTA: relative to mean value of control group; for amount of TH in LC section 2: LC section 2, i.p. 20 mg/kg; for amount of TH in LC section 3: LC section 3, i.p. 20 mg/kg; for amount of TH in LC section 4: LC section 4, i.p. 20 mg/kg; for amount of TH in LC section 5: LC section 5, i.p. 20 mg/kg; for amount of TH in LC section 6: LC section 6, i.p. 20 mg/kg; for amount of TH in LC section 7: LC section 7, i.p. 20 mg/kg; for amount of TH in LC section 8: LC section 8, i.p. 20 mg/kg; for amount of TH in LC section 9: LC section 9, i.p. 20 mg/kg; for amount of TH in LC section 10: LC section 10, i.p. 20 mg/kg; for amount of TH in LC section 11: LC section 11, i.p. 20 mg/kg; for TH induction in the SN: substantia nigra; for TH induction in the SN / TH induction in the VTA: single i.p. injection; for TH induction in the VTA: ventral tegmental area
Excerpt: A search is made among the compounds for those which are capable of bringing about an increase in the tyrosine hydroxylase (TH) protein in the locus coeruleus (LC), substantia nigra (SN) and ventral tegmental area (VTA) of the brain of the Balb/C mouse. The animals used are consanguinal male mice of the pure Balb/C strain (Charles River Laboratories) aged 6 weeks at the time of treatment.
The mice are given a single injection, by the intraperitoneal route, of the compound under test, dissolved in 0.04M HCl solution (corresponding control: 0.04M HCl), if the compound is sufficiently soluble, or in olive oil 90%/DMSO 10% (corresponding control: olive oil 90%/DMSO 10%) for compounds that are insoluble in an aqueous medium. The volume injected is 100 μl. The test groups comprise 10 animals.
Three days after the injection of each compound, all the animals are sacrificed by decapitation. The brains are removed and then frozen in an isopentane solution at −30° C. for 45 seconds and subsequently stored at −80° C.
Serial coronal sections 20 microns thick are then taken using a cryomicrotome. Each structure of interest is then sampled along the posterior-anterior axis of the brain by taking sections at 80-micron spacings in the case of the LC and at 80- or 160-micron spacings in the case of the VTA and SN. The limits of those structures are those described in the atlas of Franklin and Paxinos. The total proteins of each of those sections are transferred by direct collection of the sections to a nitrocellulose filter (Millipore). The amounts of TH present in each sample are measured by immunochemistry, fluorimetric detection and image analysis.

[2] = system: confluent endothelial cells from bovine capillaries; experiment: Predicted crossing of the blood-brain barrier (BBB); type: in vitro ADME; design: key: high; intermediate; low; conditions: 20 μM in upper compartment, filter with bovine capillary endothelial cells, 10-60 minutes, LC-MS-MS
Description: The substances are incubated at 20 μM in the upper compartment of a double container, the upper compartment being separated from the lower compartment either solely by a polycarbonate filter or by the same filter covered with confluent endothelial cells from bovine capillaries. Evaluation of the permeability kinetics is carried out by means of LC-MS-MS quantification of the unchanged substance in the lower compartment after 10, 20, 30, 40 and 60 minutes.
The results are given in the form of the categories: high, intermediate, low.

[3] = biological target: 5HT receptors (type 5HT2A) (Homo sapiens, UniProt P28223); experiment: Affinity for receptors, displacement of labelled specific ligand: 5HT2A; type: binding; conditions: for inhibition at 10 µM: concentration 10^−5 M; for inhibition at 0.1 µM: concentration 10^−7 M
[4] = biological target: dopaminergic receptors (type D1) (Homo sapiens, UniProt P21728); experiment: Affinity for receptors, displacement of labelled specific ligand: D1; type: binding; conditions: for inhibition at 10 µM: concentration 10^−5 M; for inhibition at 0.1 µM: concentration 10^−7 M
[5] = biological target: dopaminergic receptors (type D2) (Homo sapiens, UniProt P14416); experiment: Affinity for receptors, displacement of labelled specific ligand: D2; type: binding; conditions: for inhibition at 10 µM: concentration 10^−5 M; for inhibition at 0.1 µM: concentration 10^−7 M
[6] = system: muscarinic (M) receptors; experiment: Affinity for receptors, displacement of labelled specific ligand: muscarinic; type: binding; conditions: concentration 10^−5 M
Description: (§1) The affinity for receptors is determined according to customary methods of relations between the specific ligand and the receptor, which may be of animal origin or a human recombinant. The affinity was determined by the method of displacement of the labelled specific ligand by the compound under test and expressed by the dissociation constant KI. The receptor affinity was accordingly studied for 28 conventional receptors.

[7] = system: sigma (σ) receptors (ligand: haloperidol); experiment: Affinity for receptors, displacement of labelled specific ligand: sigma; type: binding
Description: as §1

[8] = Predicted metabolic stability, mouse hepatic microsomes; type: in vitro ADME; conditions: 10^−7 M, mouse hepatic microsomes 0.33 mg of prot/ml, NADPH
Description: (§2) The predicted metabolic stability is tested by incubation of the compounds at a concentration of 10^−7M in the presence of mouse, rat or human hepatic microsomes (0.33 mg of prot/ml). After addition of NADPH (nicotinamide adenine dinucleotide phosphate, reduced form), samples are taken at 0, 5, 15, 30 and 60 minutes. The enzymatic reaction is stopped using methanol (V/V). The protein is precipitated by centrifugation and the supernatant is analysed by LC-MS-MS.

[9] = Predicted metabolic stability, human hepatic microsomes; type: in vitro ADME; conditions: 10^−7 M, human hepatic microsomes 0.33 mg of prot/ml, NADPH
Description: as §2

Sequence of 5HT receptors (type 5HT2A) (P28223 whole entry): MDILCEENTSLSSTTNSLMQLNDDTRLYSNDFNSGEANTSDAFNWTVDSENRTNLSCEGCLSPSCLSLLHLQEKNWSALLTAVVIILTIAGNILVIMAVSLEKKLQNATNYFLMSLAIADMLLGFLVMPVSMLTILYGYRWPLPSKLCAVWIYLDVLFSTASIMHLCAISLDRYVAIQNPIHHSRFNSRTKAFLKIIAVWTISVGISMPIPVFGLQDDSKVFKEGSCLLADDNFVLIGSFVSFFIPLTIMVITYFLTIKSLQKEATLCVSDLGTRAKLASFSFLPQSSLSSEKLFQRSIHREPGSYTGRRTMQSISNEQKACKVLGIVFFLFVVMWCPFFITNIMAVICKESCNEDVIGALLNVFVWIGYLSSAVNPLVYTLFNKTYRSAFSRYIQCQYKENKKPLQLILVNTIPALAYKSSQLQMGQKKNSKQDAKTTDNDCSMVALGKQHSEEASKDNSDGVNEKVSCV
Sequence of dopaminergic receptors (type D2) (P14416 whole entry): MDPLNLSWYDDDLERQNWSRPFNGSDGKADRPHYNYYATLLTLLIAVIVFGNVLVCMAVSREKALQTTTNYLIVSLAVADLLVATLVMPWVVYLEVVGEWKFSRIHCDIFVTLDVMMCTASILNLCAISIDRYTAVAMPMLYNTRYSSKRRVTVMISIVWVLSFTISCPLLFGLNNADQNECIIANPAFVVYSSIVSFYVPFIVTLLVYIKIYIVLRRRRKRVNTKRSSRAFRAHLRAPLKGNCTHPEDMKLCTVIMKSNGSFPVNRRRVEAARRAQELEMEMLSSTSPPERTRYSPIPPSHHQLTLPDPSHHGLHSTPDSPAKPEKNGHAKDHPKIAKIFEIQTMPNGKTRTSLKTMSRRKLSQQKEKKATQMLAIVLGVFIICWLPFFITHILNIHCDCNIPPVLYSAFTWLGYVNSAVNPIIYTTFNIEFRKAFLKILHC
Sequence of dopaminergic receptors (type D1) (P21728 whole entry): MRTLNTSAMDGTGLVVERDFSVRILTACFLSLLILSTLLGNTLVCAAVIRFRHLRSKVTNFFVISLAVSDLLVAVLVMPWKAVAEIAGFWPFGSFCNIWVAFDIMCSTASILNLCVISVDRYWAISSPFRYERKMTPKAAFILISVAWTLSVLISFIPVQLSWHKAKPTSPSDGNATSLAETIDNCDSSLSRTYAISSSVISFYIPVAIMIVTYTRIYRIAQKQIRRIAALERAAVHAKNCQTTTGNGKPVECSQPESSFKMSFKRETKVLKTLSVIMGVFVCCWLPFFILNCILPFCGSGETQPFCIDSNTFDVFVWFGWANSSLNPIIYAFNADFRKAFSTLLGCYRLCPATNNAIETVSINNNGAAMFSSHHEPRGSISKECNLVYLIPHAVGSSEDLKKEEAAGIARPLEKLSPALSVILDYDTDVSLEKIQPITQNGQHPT

| Structure (SMILES) | amount of TH in LC section 1 [1] | amount of TH in LC section 2 [1] | amount of TH in LC section 3 [1] | amount of TH in LC section 4 [1] | amount of TH in LC section 5 [1] | amount of TH in LC section 6 [1] | amount of TH in LC section 7 [1] | amount of TH in LC section 8 [1] | amount of TH in LC section 9 [1] | amount of TH in LC section 10 [1] | amount of TH in LC section 11 [1] | amount of TH, LC, total [1] | TH induction in the SN [1] | TH induction in the VTA [1] | inhibition at 10 µM [3] | inhibition at 0.1 µM [3] | inhibition at 10 µM [4] | inhibition at 0.1 µM [4] | inhibition at 10 µM [5] | inhibition at 0.1 µM [5] | also measured |
| --- | --- | --- | --- | --- | --- | --- | --- | --- | --- | --- | --- | --- | --- | --- | --- | --- | --- | --- | --- | --- | --- |
| CN1CCC=C(C(=O)Nn2ccc3cc(F)ccc32)C1 [Example 7, N-(5-fluoro-1H-indol-1-yl)-1-methyl-1,2,5,6-tetrahydropyridine-3-carboxamide] | 113% | 139* % | 112% | 119% | 138** % | 122% | 141** % | 131* % | 96% | 125% | 106% | 123** % | 88* % | 94% | < 10% | < 10% | < 10% | < 10% | < 10% | < 10% | TH induction in the LC, in words [1]: induce TH only in the LC; degree of crossing of the BBB (category) [2]: high |
| CN1CCC=C(C(=O)NN2CCc3ccccc32)C1 [Example 15, N-(2,3-dihydro-1H-indol-1-yl)-1-methyl-1,2,5,6-tetrahydropyridine-3-carboxamide] |  |  |  |  |  |  |  |  |  |  |  |  | 91% | 88* % |  |  |  |  |  |  |  |
| CN(C)CCN1CCCC(C(=O)Nn2ccc3ccccc32)C1 (stereo not shown) [Example 22, 1-[2-(Dimethylamino)ethyl]-N-(1H-indol-1-yl)-3-piperidinecarboxamide] | 79% | 101% | 112% | 98% | 108% | 113% | 146** % | 120% | 135* % | 179** % | 145* % | 119** % |  |  |  |  |  |  |  |  |  |
| O=C(Nn1ccc2ccccc21)C1CCCN(CCN2CCCCC2)C1 (stereo not shown) [Example 24, N-(1H-indol-1-yl)-1-[2-(1-piperidyl)ethyl]-3-piperidinecarboxamide] | 165* % | 157* % | 120% | 127% | 145* % | 131** % | 139* % | 116% | 139% | 96% | 94% | 129** % |  |  |  |  |  |  |  |  | degree of crossing of the BBB (category) [2]: high |
| C=CCN1CCCC(C(=O)Nn2ccc3cc(Cl)ccc32)C1 (stereo not shown) [Example 12, 1-Allyl-N-(5-chloro-1H-indol-1-yl)piperidine-3-carboxamide] | 57% | 70% | 80% | 110% | 114% | 92% | 95% | 82% | 98% | 94% | 26% | 90% | 122* % | 95% | < 10% | < 10% | < 10% | < 10% | < 10% | < 10% | TH induction in the LC, in words [1]: without increasing expression of the protein; TH induction in the SN, in words [1]: induce TH in the SN; TH induction in the VTA, in words [1]: without increasing expression of the protein; % inhibition M [6]: 51%; % inhibition σ ([7]; concentration 10^−5 M): 85%; % inhibition σ ([7]; concentration 10^−7 M): 18% |
| CN1CCN(CCN2CCCC(C(=O)Nn3ccc4ccccc43)C2)CC1 (stereo not shown) [Example 25, N-(1H-indol-1-yl)-1-[2-(4-methyl-1-piperazinyl)ethyl]-3-piperidine-carboxamide] |  |  |  |  |  |  |  |  |  |  |  |  |  |  | 14% | 12% | < 10% | < 10% | < 10% | < 10% | % inhibition M [6]: 27%; % inhibition σ ([7]; concentration 10^−5 M): 100%; % inhibition σ ([7]; concentration 10^−7 M): 17%; % metabolic stability predicted using hepatic microsomes, Mouse [8]: 85%; % metabolic stability predicted using hepatic microsomes, Human [9]: 63% |
| CN1CC[C@H](C(=O)Nn2ccc3ccccc32)[C@H](c2ccc(F)cc2)C1 [Example 38, (3R,4S)-3-(4-Fluorophenyl)-N-(1H-indol-1-yl)-1-methylpiperidine-4-carboxamide] |  |  |  |  |  |  |  |  |  |  |  |  |  |  |  |  |  |  |  |  | melting point: 134 °C |
| CN1CCC=C(C(=O)Nn2ccc3ccccc32)C1 [Example 1, N-(1H-indol-1-yl)-1-methyl-1,2,5,6-tetrahydropyridine-3-carboxamide] | 57% | 72% | 128% | 128% | 158* % | 152* % | 131% | 107% | 106% | 95% | 55% | 121% | 155** % | 125% | < 10% | < 10% | < 10% | < 10% | < 10% | < 10% | TH induction in the SN, in words [1]: markedly induces TH; TH induction in the VTA, in words [1]: markedly induces TH; TH induction in the medial LC (sections 4, 5 and 6), in words ([1]; medial LC): markedly induces TH; % inhibition M [6]: 23%; % inhibition σ ([7]; concentration 10^−5 M): 44%; degree of crossing of the BBB (category) [2]: high; % metabolic stability predicted using hepatic microsomes, Mouse [8]: 40%; % metabolic stability predicted using hepatic microsomes, Human [9]: 70% |
| O=C(Nn1ccc2ccccc21)C1CCCN(CCN2CCN(CCO)CC2)C1 (stereo not shown) [Example 26, 1-{2-[4-(2-Hydroxyethyl)-1-piperazinyl]ethyl}-N-(1H-indol-1-yl)-3-piperidinecarboxamide] | 152* % | 98% | 136** % | 107% | 154** % | 133* % | 127* % | 96% | 132% | 110% | 89% | 121** % |  |  |  |  |  |  |  |  |  |
